{"source": "patent US20220168384A1", "about": "“Anti-Bacterial Combination Therapy” (McMaster University, priority 2019, published 2022)", "key": {"[1]": {"tested_on": "P. aeruginosa PA14 and Mar2xT7 transposon mutants", "assay": "MIC microbroth dilution assay, thiostrepton susceptibility of PA14 and mutants", "assay_type": "cell-based, Pseudomonas aeruginosa", "settings": "for MIC / IC50: Pseudomonas aeruginosa, VBMM; for IC50: read-out: ICCO", "description": "MICs were determined with microbroth dilution assays in Nunc 96-well plates. Vehicle controls consisted of 1:75 dilutions of DMSO in 10:90 inoculated with PA14 or its mutants as described in “Growth Curves” above. Sterile controls consisted of 1:75 dilutions of DMSO in 10:90. Seven serially diluted concentrations of TS—with 17 μg/mL being the highest final concentration—was set up in triplicate. Tests were done with 1:75 dilutions of each TS concentration in 10:90 inoculated with PA14 or its mutants as described in Growth Curves. Plates were sealed to prevent evaporation and incubated with shaking at 200 rpm, 16 h, 37° C. The OD600 of the plates was read (Multiskan Go—Thermo Fisher Scientific) and used to calculate MIC. Growth is proportional to the darkness intensity whereas white indicates no observable growth. The final volume of each well was 150 μL and each experiment was repeated at least three times.\nTo identify the route of iron-limitation dependent TS entry into P. aeruginosa, the susceptibility of mutants from the ordered PA14 transposon library (15) that had insertions in genes encoding known siderophore receptors, as well as mutants with insertions in uncharacterized OM proteins with homology to siderophore receptors was tested. In VBMM, most mutants had MICs similar to those of the parental strain (Table 1). […]. P. aeruginosa encodes two type I pyoverdine receptors, FpvA and FpvB, with ˜39% amino acid identity (71% similarity). […]. When fpvA was deleted in the fpvB background, the double mutant had similar resistance levels to the fpvA single mutant (Table 1), but complementation of that mutant with fpvB on a low-copy number plasmid increased TS susceptibility (Table 1)."}, "[2]": {"tested_on": "P. aeruginosa clinical isolates", "assay": "Clinical isolates testing, P. aeruginosa", "assay_type": "cell-based, Pseudomonas aeruginosa", "settings": "Pseudomonas aeruginosa; approximately 1 in 10 of 96 clinical isolates; 10:90", "description": "(§1) Clinical isolates of P. aeruginosa and A. baumannii were inoculated from −80° C. stocks into 200 μL LB broth and grown with shaking at 200 rpm, 16 h, 37° C. in Nunc 96-well plates. The overnight cultures were subcultured (1:25 dilution) into 10:90 and grown with shaking at 200 rpm, 2 h, 37° C. Vehicle controls consisted of 4 μL of DMSO, 144 μL 10:90 and 2 μL of subculture. Sterile controls consisted of 4 μL of DMSO and 146 μL 10:90. […]. The final volume of each well was 150 μL and each checkerboard was repeated at least three times. Plates were incubated with shaking at 200 rpm, 16 h, 37° C. and OD600 was measured (Multiskan Go—Thermo Fisher Scientific). The results were plotted as percent of control (wells containing only DMSO) using Prism (GraphPad).\n(§2) Clinical isolates were grown and tested as described in Example 1. Briefly, clinical isolates were inoculated from glycerol stocks stored at −80° C. into Nunc 96-well plates and grown overnight at 37° C., for 16 h with shaking in LB (200 rpm). Overnights were subcultured (1:25) into fresh 10:90 medium and grown for 2 h under the same growth conditions. Subcultures were diluted 1:75 in fresh 10:90. Compounds were diluted 1:75 to obtain the final concentration. DOXY and CLI were added at a final concentration of 1 μg/mL, CO was used at 2 μg/mL, TRO was used at 4 μg/mL, TS was used at 8.3 μg/mL, and DSX was used at 32 μg/mL. Vehicle and sterility controls were included. Plates were incubated overnight with the same conditions. The OD600 was read (Multiscan Go—Thermo Fisher Scientific), analyzed using Excel, and the data plotted using Prism (GraphPad).\n(§3) Culture conditions, checkerboard assays using P. aeruginosa PA14 and dose-response assays were performed as described in Example 1. In addition to TS, other thiopeptides tested were siomycin A (SM), thiocillin I (TC), micrococcin P1 (MC), nosiheptide (NH), berninamycin A (BER), and geninthiocin A (GEN). For dose response assays of the combinations conducted in 10:90, DSX concentration was constant at 64 μg/mL."}, "[3]": {"tested_on": "Acinetobacter baumannii clinical isolates", "assay": "Clinical isolates testing, A. baumannii", "assay_type": "cell-based", "settings": "10:90", "description": "as §1, §2, §3"}, "[4]": {"tested_on": "methicillin-resistant Staphylococcus aureus USA300", "assay": "Thiostrepton susceptibility of S. aureus in MHB versus 10:90", "assay_type": "cell-based", "settings": "both 10:90 medium and MHB", "source_text": "The susceptibility of P. aeruginosa PA14, E. coli BW25113, A. baumannii C0286, and S. aureus USA300 was compared in MHB versus 10:90 medium. E. coli lacks FpvAB and is resistant to TS in both media."}, "[5]": {"assay": "Chrome azurol S (CAS) plate assay", "assay_type": "physicochemical", "settings": "5 μl of 2 mg/ml; room temperature 1 h"}, "[6]": {"settings": "PA14, strain chtA::Mar2xT7 (PA4675)"}, "[7]": {"settings": "PA14, strain fithA::Mar2xT7 (PA4516)"}, "[8]": {"settings": "PA14, strain fiuA::Mar2xT7 (PA0470)"}, "[9]": {"settings": "PA14, strain foxA::Mar2xT7 (PA2466)"}, "[10]": {"settings": "PA14, strain fptA::Mar2xT7 (PA4221)"}, "[11]": {"settings": "PA14, strain fpvA fpvB::Mar2xT7 (PA2398, PA4168)"}, "[12]": {"settings": "PA14, strain fpvA fpvB::Mar2xT7 + pUCP20-fpvB"}, "[13]": {"settings": "PA14, strain fpvA fpvB::Mar2xT7 + pUCP20"}, "[14]": {"settings": "PA14, strain fpvA::Mar2xT7 (PA2398)"}, "[15]": {"settings": "PA14, strain fpvB::Mar2xT7 (PA4168)"}, "[16]": {"settings": "PA14, strain hasR::Mar2xT7 (PA3408)"}, "[17]": {"settings": "PA14, strain pfeA::Mar2xT7 (PA2688)"}, "[18]": {"settings": "PA14, strain phuR::Mar2xT7 (PA4710)"}, "[19]": {"settings": "PA14, strain pirA::Mar2xT7 (PA0931)"}, "[20]": {"settings": "PA14, strain piuA::Mar2xT7 (PA4514)"}, "[21]": {"settings": "PA14, strain pvdA::Mar2xT7 (PA2386)"}}, "note": "Read-outs that look alike come from different tables or passages of the source."}
{"smiles": "C=C(NC(=O)C(=C)NC(=O)c1csc(C2=N[C@@H]3c4csc(n4)[C@H]4NC(=O)c5csc(n5)[C@H]([C@](C)(O)[C@@H](C)O)NC(=O)[C@H]5CSC(=N5)/C(=C/C)NC(=O)[C@H]([C@@H](C)O)NC(=O)c5csc(n5)[C@]3(CC2)NC(=O)[C@H](C)NC(=O)C(=C)NC(=O)[C@H](C)NC(=O)[C@H]([C@@H](C)CC)N[C@@H]2C=Cc3c([C@H](C)O)cc(nc3[C@H]2O)C(=O)O[C@@H]4C)n1)C(N)=O", "note": "[TS, thiostrepton]", "values": [{"measurement": "susceptibility to TS in Mueller-Hinton broth", "setting": "[1]; P. aeruginosa PA14, nutrient-rich MHB versus 10:90", "result": "reduced susceptibility"}, {"measurement": "MIC", "setting": "[1]; PA14, strain PA14 (wild type)", "result": 0.6, "unit": "µM"}, {"measurement": "IC50", "setting": "[1]; PA14, strain PA14 (wild type)", "result": 0.26, "unit": "µg/mL"}, {"measurement": "MIC", "setting": "[1]; PA14, strain PA0151::Mar2xT7", "result": 0.45, "unit": "µM"}, {"measurement": "IC50", "setting": "[1]; PA14, strain PA0151::Mar2xT7", "result": 0.26, "unit": "µg/mL"}, {"measurement": "MIC", "setting": "[1]; PA14, strain PA1322::Mar2xT7", "result": 0.41, "unit": "µM"}, {"measurement": "IC50", "setting": "[1]; PA14, strain PA1322::Mar2xT7", "result": 0.26, "unit": "µg/mL"}, {"measurement": "MIC", "setting": "[1]; PA14, strain PA4837::Mar2xT7", "result": 0.41, "unit": "µM"}, {"measurement": "IC50", "setting": "[1]; PA14, strain PA4837::Mar2xT7", "result": 0.26, "unit": "µg/mL"}, {"measurement": "MIC", "setting": "[1]; [6]", "result": 0.36, "unit": "µM"}, {"measurement": "IC50", "setting": "[1]; [6]", "result": 0.59, "unit": "µg/mL"}, {"measurement": "MIC", "setting": "[1]; [7]", "result": 0.5, "unit": "µM"}, {"measurement": "IC50", "setting": "[1]; [7]", "result": 0.26, "unit": "µg/mL"}, {"measurement": "MIC", "setting": "[1]; [8]", "result": 0.36, "unit": "µM"}, {"measurement": "IC50", "setting": "[1]; [8]", "result": 0.26, "unit": "µg/mL"}, {"measurement": "MIC", "setting": "[1]; [9]", "result": 0.6, "unit": "µM"}, {"measurement": "IC50", "setting": "[1]; [9]", "result": 0.26, "unit": "µg/mL"}, {"measurement": "MIC", "setting": "[1]; [10]", "result": 0.45, "unit": "µM"}, {"measurement": "IC50", "setting": "[1]; [10]", "result": 0.26, "unit": "µg/mL"}, {"measurement": "MIC", "setting": "[1]; [11]", "result": 7.5, "unit": "µM"}, {"measurement": "IC50", "setting": "[1]; [11]", "result": 6.9, "unit": "µg/mL"}, {"measurement": "MIC", "setting": "[1]; [12]", "result": 2.5, "unit": "µM"}, {"measurement": "IC50", "setting": "[1]; [12]", "result": 2.8, "unit": "µg/mL"}, {"measurement": "MIC", "setting": "[1]; [13]", "result": 7.5, "unit": "µM"}, {"measurement": "IC50", "setting": "[1]; [13]", "result": 4.2, "unit": "µg/mL"}, {"measurement": "MIC", "setting": "[1]; [14]", "result": 7.5, "unit": "µM"}, {"measurement": "IC50", "setting": "[1]; [14]", "result": 3.7, "unit": "µg/mL"}, {"measurement": "MIC", "setting": "[1]; [15]", "result": 1.3, "unit": "µM"}, {"measurement": "IC50", "setting": "[1]; [15]", "result": 1.8, "unit": "µg/mL"}, {"measurement": "MIC", "setting": "[1]; [16]", "result": 0.6, "unit": "µM"}, {"measurement": "IC50", "setting": "[1]; [16]", "result": 0.35, "unit": "µg/mL"}, {"measurement": "MIC", "setting": "[1]; [17]", "result": 0.82, "unit": "µM"}, {"measurement": "IC50", "setting": "[1]; [17]", "result": 0.26, "unit": "µg/mL"}, {"measurement": "MIC", "setting": "[1]; [18]", "result": 0.21, "unit": "µM"}, {"measurement": "IC50", "setting": "[1]; [18]", "result": 0.26, "unit": "µg/mL"}, {"measurement": "MIC", "setting": "[1]; [19]", "result": 0.6, "unit": "µM"}, {"measurement": "IC50", "setting": "[1]; [19]", "result": 0.35, "unit": "µg/mL"}, {"measurement": "MIC", "setting": "[1]; [20]", "result": 0.36, "unit": "µM"}, {"measurement": "IC50", "setting": "[1]; [20]", "result": 0.35, "unit": "µg/mL"}, {"measurement": "MIC", "setting": "[1]; [21]", "result": 0.21, "unit": "µM"}, {"measurement": "IC50", "setting": "[1]; [21]", "result": 0.26, "unit": "µg/mL"}, {"measurement": "MIC", "setting": "[2]", "result": "≥ 5", "unit": "µM"}, {"measurement": "susceptibility of A. baumannii strain C0286", "setting": "[3]", "result": "resistant"}, {"measurement": "activity at 5 µM", "setting": "[3]; Acinetobacter baumannii, 5 μM TS, 6 of 10 strains, read-out: growth, % of control", "result": "≤ 50", "unit": "%"}, {"measurement": "TS concentration inhibiting growth", "setting": "[4]", "result": "< 40", "unit": "nM"}, {"measurement": "decolorization of CAS agar (iron binding)", "setting": "[5]", "result": "lack of a color change"}]}
